Activity calls are given as the source filed them.
How the values were obtained:
[1] = luciferase reporter signal suppression in cells – H4 neuroglioma cells, luminescence, dose response (AID 1990); assay type: functional, cell-based
BJ [2] = test: BJ-TERT fibroblast viability loss – cell-based, RAS-independent, luminescence, dose response (AID 1933); assay type: functional; details: Homo sapiens
[3] = Luminescence Cell-Based Dose Response HTS to Identify Inhibitors of 5'UTR Stem-Loop Driven Prion Protein mRNA Translation in H4 Neuroglioblastoma Cells. [Related pubchem assays: 1827 (Project Summary), 1813 (Primary HTS)]; assay type: functional
[4] = alpha-synuclein stem-loop luciferase translation blockers – H4 neuroglioma cells, luminescence, confirmation (AID 1988); assay type: functional, cell-based
BJ [5] = test: cells; assay type: functional, cell-based; details: Homo sapiens
[6] = viability of PTEN-deleted HCT116 cells – cell-based, HCT116 PTEN knockout, dose response (AID 1047); assay type: functional;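 note: HCT116 colon tumor cells with PTEN knocked out; cells exposed to compound for 60 hours before readout; potency for loss of cell viability measured by luminescence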
[7] = viability of HCT116 lacking mutant beta-catenin – cell-based, human colon tumor, dose response (AID 1045); assay type: functional;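 note: HCT116 colon tumor cells with beta catenin knocked out; cells exposed to compound for 60 hours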
BJ [8] = test: BJ-TERT-LT-ST fibroblast viability loss – cell-based, RAS-independent, luminescence, dose response (AID 1935); assay type: functional; details: Homo sapiens;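 note: BJ fibroblasts immortalized with TERT plus LT and ST oncogenes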
[9] = DRD fibroblast viability loss – cell-based, non-viral oncogenic, luminescence, dose response (AID 1934); assay type: functional; details: Homo sapiens
[10] = target: T1, Ubiquitin-conjugating enzyme E2 N (Homo sapiens, UniProt P61088); assay type: functional;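 note: Dose-response confirmation in a TR-FRET assay detecting UBC13-driven polyubiquitin chain formation, inhibition measured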
T1 sequence (P61088 whole entry): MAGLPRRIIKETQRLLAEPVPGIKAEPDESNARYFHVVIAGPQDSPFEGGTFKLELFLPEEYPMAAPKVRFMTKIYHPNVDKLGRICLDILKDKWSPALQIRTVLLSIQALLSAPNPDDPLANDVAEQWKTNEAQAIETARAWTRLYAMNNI

Streptokinase A = target: T2, Streptokinase A (Streptococcus pyogenes serotype M1, UniProt P10520); test: viability-normalized secreted streptokinase activity reduction – plasminogen activation absorbance, OD405, dose response (AID 1914); assay type: functional, Streptococcus pyogenes M1 GAS;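 note: secreted streptokinase activity via plasminogen activation per viability signal from cell pellet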
T2 sequence (P10520 whole entry): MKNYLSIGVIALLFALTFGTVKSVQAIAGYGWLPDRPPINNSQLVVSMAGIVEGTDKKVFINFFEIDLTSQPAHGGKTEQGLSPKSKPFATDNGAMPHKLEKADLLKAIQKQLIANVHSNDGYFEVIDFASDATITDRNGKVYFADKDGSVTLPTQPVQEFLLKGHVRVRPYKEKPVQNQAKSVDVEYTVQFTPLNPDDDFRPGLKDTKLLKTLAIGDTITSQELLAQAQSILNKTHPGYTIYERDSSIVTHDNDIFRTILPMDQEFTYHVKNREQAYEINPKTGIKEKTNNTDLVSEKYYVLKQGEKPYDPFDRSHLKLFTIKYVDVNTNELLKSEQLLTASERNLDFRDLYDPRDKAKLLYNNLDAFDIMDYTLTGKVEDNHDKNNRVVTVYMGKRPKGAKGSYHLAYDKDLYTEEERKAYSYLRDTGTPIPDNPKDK

[11] = viability loss in THP-1 monocytes – THP-1 cells, cytotoxicity control for Vif-APOBEC3G degradation inhibitor project, dose response (AID 1117359); assay type: functional; details: THP-1
Nonstructural protein 1 = Nonstructural protein 1 (Influenza A virus, UniProt Q194T2); assay type: functional, Influenza A virus (A/California/07/2009(H1N1))
Nonstructural protein 1, sequence (Q194T2 whole entry): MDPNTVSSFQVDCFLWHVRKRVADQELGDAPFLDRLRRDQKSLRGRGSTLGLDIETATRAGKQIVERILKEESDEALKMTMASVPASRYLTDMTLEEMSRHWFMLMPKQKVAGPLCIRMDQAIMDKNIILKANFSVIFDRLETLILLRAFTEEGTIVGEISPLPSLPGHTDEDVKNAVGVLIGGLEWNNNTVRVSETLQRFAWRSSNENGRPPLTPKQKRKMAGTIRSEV

Leucine aminopeptidase = target: T3, Leucine aminopeptidase (Plasmodium falciparum 3D7, UniProt Q8IL11); test: P. falciparum M17LAP inhibitors, primary screen, biochemical, fluorogenic H-Leu-NHMec substrate, 1536-well (AID 1619); assay type: functional
T3 sequence (Q8IL11 whole entry): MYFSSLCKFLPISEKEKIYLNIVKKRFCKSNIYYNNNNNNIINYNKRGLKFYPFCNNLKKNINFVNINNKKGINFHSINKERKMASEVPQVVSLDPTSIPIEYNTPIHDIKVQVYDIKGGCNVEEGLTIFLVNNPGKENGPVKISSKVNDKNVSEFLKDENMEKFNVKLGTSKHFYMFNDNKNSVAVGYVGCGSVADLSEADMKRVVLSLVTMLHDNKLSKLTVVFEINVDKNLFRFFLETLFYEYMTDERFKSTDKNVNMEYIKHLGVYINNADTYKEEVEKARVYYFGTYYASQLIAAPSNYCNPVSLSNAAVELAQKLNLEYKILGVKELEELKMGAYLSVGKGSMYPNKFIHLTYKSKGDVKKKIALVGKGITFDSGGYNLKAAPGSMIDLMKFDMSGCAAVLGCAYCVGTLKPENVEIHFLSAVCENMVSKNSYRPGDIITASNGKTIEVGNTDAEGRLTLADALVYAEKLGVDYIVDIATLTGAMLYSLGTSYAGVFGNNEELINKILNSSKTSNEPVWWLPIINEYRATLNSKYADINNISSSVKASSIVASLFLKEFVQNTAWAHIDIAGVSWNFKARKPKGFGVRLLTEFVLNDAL

**Q.** With `COc1cc(/C=C(/C#N)c2nc3ccccc3[nH]2)ccc1OCC(=O)Nc1ccccc1C(C)C` as the molecule, how does the EC50 [1] read?
**A.** Its EC50 is 1.4 µM (active).

**Q.** What about the EC50 (BJ [2]) of the same molecule?
**A.** The EC50 was 2.97 µM (active).

**Q.** And the EC50 [3]?
**A.** The EC50 was 3.34 µM (active).

**Q.** What about the EC50 [4] of the same molecule?
**A.** Its EC50 is 0.56 µM (active).

**Q.** What about the EC50 (BJ [5]) of the same molecule?
**A.** The EC50 was 3.15 µM (active).

**Q.** What about the EC50 [6] of the same molecule?
**A.** Its EC50 is 19.6 µM (active).

**Q.** What about the EC50 [7] of the same molecule?
**A.** The EC50 was 3.91 µM (active).

**Q.** What about the EC50 (BJ [8]) of the same molecule?
**A.** Its EC50 is 5.76 µM (inconclusive).

**Q.** And the EC50 [9]?
**A.** The EC50 was 2.81 µM (active).

**Q.** For `Cc1ccc(NC(=O)CSc2nc3ccccc3c(=O)n2CCCC(=O)NCCCN2CCOCC2)cc1C`, which IC50 [10] is on record?
**A.** The IC50 was > 20 µM (inactive).

**Q.** Which EC50 (Streptokinase A) does the source give for `CCN1CCN(Cc2ccc(NC(=O)c3cc(NC(=O)c4cc(-c5ccc(OC)cc5)n[nH]4)cc(OC)c3)cc2C(F)(F)F)CC1` here?
**A.** The EC50 was > 150 µM (not active).

**Q.** What about the IC50 [10] of the same molecule?
**A.** Its IC50 is > 20 µM (inactive).

**Q.** Which CC50 [11] does the source give for `COc1ccc2nc(N3CCN(C(=O)c4ccc5ncsc5c4)CC3)sc2c1` here?
**A.** The CC50 was > 40 µM (active).

**Q.** For `CN(CC(=O)O)Cc1nc2ccccc2[nH]1`, which IC50 (Nonstructural protein 1) is on record?
**A.** Its IC50 is 11.6 µM (active).

**Q.** Which IC50 (Leucine aminopeptidase) does the source give for `O=C(c1ccco1)N1CCN(C(=O)c2[nH]ncc2[N+](=O)[O-])CC1` here?
**A.** Its IC50 is 2.22 µM (active).

**Q.** For `O=C(c1ccco1)N1CCN(C(=O)c2cn(-c3ccccc3)nc2-c2ccccc2)CC1`, which CC50 [11] is on record?
**A.** The CC50 was 32.8 µM (active).

**Q.** Which IC50 (Nonstructural protein 1) does the source give for `CC1CCN(C(=O)c2ccc3c(c2NCCO)C(=O)c2ccccc2C3=O)CC1` here?
**A.** Its IC50 is 24.5 µM (active).

**Q.** For `Clc1ccccc1CNc1ncnc2nc[nH]c12`, which IC50 (Leucine aminopeptidase) is on record?
**A.** The IC50 was 48.3 µM (active).

— ChEMBL document CHEMBL1201862, “PubChem BioAssay data set” (2004)
